Experimental data taken from patent US20230227445A1, “BENZAMIDE COMPOUND AND USE THEREOF” (HUMANWELL HEALTHCARE (GROUP) CO., LTD., priority 2020, published 2023).

Columns and labels:
[1] = target: T1, hP2X3 receptor (Homo sapiens, UniProt P56373); experiment: Antagonistic activity against hP2X3 receptor by FLIPR calcium flow assay; format: cell-based; settings: for IC50: human cells stably transfected with hP2X3, agonist α,β-meATP 400 nM; for antagonistic activity against hP2X3 receptor compared with Reference compound 1 (in words): vs Reference compound 1
T1 construct: expressed in transfected cells
T1 sequence (P56373 1-397): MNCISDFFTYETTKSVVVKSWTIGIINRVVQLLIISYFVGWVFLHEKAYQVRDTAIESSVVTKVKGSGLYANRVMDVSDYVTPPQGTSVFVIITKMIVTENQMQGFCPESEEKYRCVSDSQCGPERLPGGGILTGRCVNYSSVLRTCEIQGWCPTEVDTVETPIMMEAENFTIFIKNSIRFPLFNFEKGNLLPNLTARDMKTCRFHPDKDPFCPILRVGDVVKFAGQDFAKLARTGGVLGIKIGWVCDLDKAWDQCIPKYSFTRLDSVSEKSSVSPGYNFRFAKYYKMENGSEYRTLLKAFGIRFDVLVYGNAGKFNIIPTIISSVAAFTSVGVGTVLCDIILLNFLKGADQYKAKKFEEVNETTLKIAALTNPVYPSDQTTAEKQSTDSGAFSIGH
Protocol: The antagonistic activity of hP2X3 antagonists against hP2X3 receptor was evaluated by means of FLIPR Calcium 4 Assay Kit (Molecular Devices, R8141) and FLIPR TETRA instrument (Molecular Devices, 0296) by detecting calcium flow signals. 24h before the experiment, human cells, which had been stably transfected with hP2X3 receptors, were plated on a 384-well plate at 2×10^5 cells/mL, with 50 μL of cell suspension per well, and the plate was cultured in an incubator (37° C., 5% CO2) for 16 h to 24 h. The test compound solution (20 to 50 mM DMSO stock solution) with a concentration of 180 times the required concentration was prepared using DMSO. The stock solution was added to the 384-well plate at 500 nL per well, supplemented with 30 μL of FLIPR Assay buffer (1×HBSS+2 mM CaCl2 20 mM HEPES containing 1.26 mM Ca^2+). The 384-well plate was shaken for 20 to 40 min to mix evenly. An agonist (α, β-meATP) with a concentration of 3 times the required concentration (required final concentration was 400 nM) was prepared with FLIPR Assay buffer, and was added to another 384-well plate at 45 μL per well. The culture plate, on which the cells were plated one day ago, was taken, the cell supernatant was sucked and discarded, each well was added with 30 μL of Dye (FLIPR® Calcium 4 Assay Kit, diluted with FLIPR buffer), and then the plate was incubated for 1h. 15 μL of compound was added to each well of cells (using FLIPR sample injector). After 15 minutes, 22.5 μL of the agonist was added to each well, and the fluorescence signal (exciting light wavelength ranging from 470 nm to 495 nm, and emission wavelength ranging from 515 nm to 575 nm) was detect. […] An inhibition effect curve of the compound was fitted on the software GraphpadPrism6, and the IC50 value was calculated.

[2] = Pharmacokinetic assay in mouse; format: in vivo, ICR mice; settings: for pharmacokinetic properties in mouse compared with Reference compound 1 and Reference compound 2 (in words): mouse assay, vs Reference compounds 1 and 2; for AUC(0-t) / Cmax / Tmax / half-life: mouse, plasma, po, male ICR mice, intragastric administration, 10 mg/kg; for half-life: read-out: T½ (converted)
Protocol: For a mouse pharmacokinetic assay, male ICR mice (20 g to 25 g) were selected and fasted overnight. Three mice were intragastrically administered with 10 mg/kg of the corresponding compound. The blood of the mice was collected before the administration and at 15 min, 30 min, 1 h, 2 h, 4 h, 8 h, and 24 h after the administration. The blood samples were centrifuged at 4° C. for 6 minutes at 6,800 g, plasma was collected and stored at −80° C.
The supernatant was mixed with 3 times the amount of water, and an appropriate amount of the mixed solution was taken for LC-MS/MS analysis. The primary pharmacokinetic parameters were analyzed by WinNonlin 7.0 software non-atrioventricular model.

[3] = system: rat taste; experiment: Taste test in rat (water vs 0.3 mM aqueous quinine solution intake); format: in vivo, SD rats; settings: for Water/aqueous quinine solution (ratio of water intake to aqueous quinine solution intake): SD rats, 30 mg/kg i.p, 0.3 mM quinine, 15 min supply half an hour after administration; for interference on rat taste compared with Reference compound 1 (in words): vs positive reference compound
Protocol: SD rats were administered with the corresponding compound after 3 days of overnight water prohibition training. Each rat was supplied with 1 bottle of water and 1 bottle of 0.3 mM aqueous quinine solution half an hour after the administration. After 15 min of water supply, the bottles were removed. The intake amount of water and the intake amount of the 0.3 mM aqueous quinine solution were measured, respectively. The taste influence of the compound on SD rats was evaluated based on the difference between the intake amount of water and the intake amount of the aqueous quinine solution.

[4] = system: histamine/citric acid-stimulated cough in guinea pig; experiment: Efficacy test for histamine/citric acid-stimulated cough in guinea pig; format: in vivo; settings: guinea pigs, nasal drops, 0.17 mg/kg to 1.5 mg/kg, histamine/citric acid stimulation
Protocol: Guinea pigs were adaptively fed for 3 days to 7 days before being grouped. When the body weight of the guinea pigs reached 300 g to 400 g, they were numbered and randomly grouped.
Compounds or an excipient were administered to guinea pigs by nasal drops 0.25 hour to 24 hours before the start of the cough assessment. The administration dose of the test sample ranged from 0.17 mg/kg to 1.5 mg/kg. For the cough assessment, the guinea pigs were placed in a whole-body volume scan box for adaptation, and then, they were provided with histamine nebulization and then citric acid nebulization. […]
(§1) The experimental data was statistically analyzed by one-way ANOVA to analyze and compare data of the various groups. The statistical analysis result p<0.05 was regarded as a significant difference. The t-test was employed for difference comparison between any two.

[5] = system: ATP/citric acid-stimulated cough in guinea pig; experiment: Efficacy test for ATP/citric acid-stimulated cough in guinea pig; format: in vivo; settings: guinea pigs, nasal drops, 0.17 mg/kg to 1.5 mg/kg, ATP/citric acid stimulation
Protocol: Guinea pigs were adaptively fed for 3 days to 7 days before being grouped. When the body weight of the guinea pigs reached 300 g to 400 g, they were numbered and randomly grouped. Compounds or an excipient were administered to guinea pigs by nasal drops 0.25 hour to 24 hours before the start of the cough assessment. The administration dose of the test sample ranged from 0.17 mg/kg to 1.5 mg/kg. For the cough assessment, the guinea pigs were placed in a whole-body volume scan box for adaptation, and then provided with ATP nebulization, and a few minutes later, they were provided with citric acid nebulization. The cough times within 15 minutes and the cough latency were recorded from the beginning of citric acid nebulization.
as §1

[6] = Pharmacokinetic assay in canine; format: in vivo, Beagle dogs; settings: for half-life (in words) / clearance rate (in words) / exposure (in words) / pharmacokinetic characteristics compared with the reference compound (in words): canine; for exposure (in words): oral and intravenous administrations; for pharmacokinetic characteristics compared with the reference compound (in words): vs reference compound; for AUC(0-t) / Cmax / Tmax / half-life / clearance / Vd: dog, plasma, male Beagle dogs; for Vd: read-out: Vz
Protocol: For a canine pharmacokinetic assay, male Beagle dogs (8 kg to 10 kg) were selected and fasted overnight. Three Beagle dogs were intragastrically administered with 5 mg/kg of the corresponding compound. Another 3 Beagle dogs were intravenously administered with 1 mg/kg of the corresponding compound. The blood of the dogs was collected before the administration and at 15 min, 30 min, 1 h, 2 h, 4 h, 8 h, and 24 h after the administration. The blood samples were centrifuged at 4° C. for 6 minutes at 8,000 r/min, plasma was collected and stored at −20° C. […] The supernatant was taken and mixed with 3 times the amount of water, and an appropriate amount of the mixed solution was taken for LC-MS/MS analysis. The primary pharmacokinetic parameters were analyzed by WinNonlin 7.0 software non-atrioventricular model.

[7] = Pharmacokinetic assay in rat; format: in vivo, SD rats; settings: rat, plasma, po, male SD rats, intragastric administration, 10 mg/kg
Protocol: For a rat pharmacokinetic assay, male SD rats (180 g to 240 g) were selected and fasted overnight. Three rats were intragastrically administered with 10 mg/kg of the corresponding compound. The blood of the rats was collected before the administration and at 15 min, 30 min, 1 h, 2 h, 4 h, 8 h, and 24 h after the administration. The blood samples were centrifuged at 4° C. for 6 minutes at 8,000 r/min, and plasma was collected and stored at −20° C. Plasma at each time point was taken, and added with 3 to 5 times the amount of an internal standard-containing acetonitrile solution to mix, and the mixture was vortex mixed for 1 minute, and centrifuged at 4° C. for 10 minutes at 13,000 r/min. The supernatant was taken and mixed with 3 times the amount of water, and an appropriate amount of the mixed solution was taken for LC-MS/MS analysis. The primary pharmacokinetic parameters were analyzed by WinNonlin 7.0 software non-atrioventricular model.

[8] = po, intragastric administration, 5 mg/kg
[9] = intravenous administration, 1 mg/kg

IC50 [1] | antagonistic activity against hP2X3 receptor compared with Reference compound 1 (in words) [1] | AUC(0-t) [2] | Cmax [2] | Tmax [2] | half-life [2] | Water/aqueous quinine solution (ratio of water intake to aqueous quinine solution intake) [3] | half-life (in words) [6] | clearance rate (in words) ([6]; intravenous administration) | exposure (in words) [6] | pharmacokinetic characteristics compared with the reference compound (in words) [6] | AUC(0-t) [6, 8] | Cmax [6, 8] | Tmax [6, 8] | half-life [6, 8] | SMILES | pharmacokinetic properties in mouse compared with Reference compound 1 and Reference compound 2 (in words) [2] | interference on rat taste compared with Reference compound 1 (in words) [3] | Average cough times within 15 min [4] | Cough inhibition rate vs. solvent [4] | Average cough times within 15 min [5] | also measured
48 nM | better antagonistic activity | 13800 ng·h/mL | 2950 ng/mL | 1 h | 141 min | 22.9 | long half-life | low clearance rate | high exposure | better pharmacokinetic characteristics | 12600 ng·h/mL | 1030 ng/mL | 1 h | 802 min | Cc1cnc(-c2cc(O[C@H](C)[C@@H](C)O)cc(C(=O)N[C@H](C)c3cnc(C(F)(F)F)nc3)c2F)s1 [Compound I-30, 2-fluoro-5-(((2R, 3R)-3-hydroxybutan-2-yl)oxy)-3-(5-methylthiazol-2-yl)-N—((R)-1-(2-(trifluoromethyl)pyrimidin-5-yl)ethyl)benzamide] | significantly improved pharmacokinetic properties | significantly less interference on rat taste | 9.8 | 63.2% | 7.1 | Cough inhibition rate vs. solvent [5]: 64.1%; AUC(0-t) [6, 9]: 2820 ng·h/mL; clearance [6, 9]: 4.33 mL/min/kg; half-life [6, 9]: 781 min; Vd [6, 9]: 4.88 L/kg
57 nM | better antagonistic activity | 14900 ng·h/mL | 4100 ng/mL | 1 h | 134 min | 12.0 | long half-life | low clearance rate | high exposure | better pharmacokinetic characteristics | 8730 ng·h/mL | 1160 ng/mL | 1 h | 436 min | Cc1cnc(-c2cc(O[C@H](C)[C@H](C)O)cc(C(=O)N[C@H](C)c3cnc(C(F)(F)F)nc3)c2F)s1 [Compound I-29, 2-fluoro-5-(((2R, 3S)-3-hydroxybutan-2-yl)oxy)-3-(5-methylthiazol-2-yl)-N—((R)-1-(2-(trifluoromethyl)pyrimidin-5-yl)ethyl)benzamide] | significantly improved pharmacokinetic properties |  | 10.8 | 59.4% |  | AUC(0-t) [6, 9]: 2010 ng·h/mL; clearance [6, 9]: 7.5 mL/min/kg; half-life [6, 9]: 458 min; Vd [6, 9]: 5 L/kg
 |  |  |  |  |  |  |  |  |  |  |  |  |  |  | Cc1cnc(-c2cc(O[C@@H]3CCOC3)cc(C(=O)N[C@H](C)c3cnc(C(F)(F)F)nc3)c2)s1 [Reference compound 1, reference compound] |  |  |  |  | 8.1 | AUC(0-t) [7]: 3330 ng·h/mL; Cmax [7]: 417 ng/mL; Tmax [7]: 2 h; half-life ([7]; read-out: T½ (converted)): 241 min
67 nM | better antagonistic activity |  |  |  |  | 29.4 |  |  |  |  |  |  |  |  | Cc1cnc(-c2cc(O[C@@H](C)[C@@H](C)O)cc(C(=O)N[C@H](C)c3cnc(C(F)(F)F)nc3)c2F)s1 [Compound I-27, 2-fluoro-5-(((2S, 3R)-3-hydroxybutan-2-yl)oxy)-3-(5-methylthiazol-2-yl)-N—((R)-1-(2-(trifluoromethyl)pyrimidin-5-yl)ethyl)benzamide] | significantly improved pharmacokinetic properties | significantly less interference on rat taste | 8.9 |  | 6.3 | 
